Assay results reported in patent publication US20250002475A1 (EPICS THERAPEUTICS, priority 2023, published 2025).

Experiments:
Caov-3 cells = assay: Caov-3 cellular viability assay (ATP-Lite, 72 h); type: cell-based; conditions: Homo sapiens, ATP-Lite luminescence, % viability relative to DMSO
Outline: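 IC50 values come from concentration-response fits of luminescent ATP content (ATP-Lite One Step), normalised as % viability versus DMSO. Compound exposure was 72 h at 37 °C in RPMI-1640/10% FBS with 0.1% final DMSO. Wells held 10000 cells each.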

Kasumi-1 cells = assay: Kasumi-1 cellular viability assay (ATP-Lite, 72 h); type: cell-based; conditions: Homo sapiens, ATP-Lite luminescence, % viability relative to DMSO
Outline: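 Viability was read by ATP-Lite One Step luminescence after 72 h compound treatment at 37 °C/5% CO2, normalised to DMSO control, with IC50 fitted from concentration-response. Cells were Kasumi-1 (AML FAB M2) at 15000 per well in RPMI-1640/10% FBS, 0.1% DMSO final.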

[1] = biological target: T1, recombinant METTL3/METTL14 complex (Homo sapiens, UniProt Q86U44); assay: METTL3/14 Scintillation Proximity Assay (SPA), RNA methyltransferase activity; type: biochemical; conditions: 5.31 nM METTL3/14 complex, 250 nM RNA substrate, 1 μM 3H-SAM, 90 min; for compounds marked * best of the two separated forms
T1 construct: purchased Active Motif 311970; host or cells: Sf9 cells
T1 sequence (Q86U44 whole entry): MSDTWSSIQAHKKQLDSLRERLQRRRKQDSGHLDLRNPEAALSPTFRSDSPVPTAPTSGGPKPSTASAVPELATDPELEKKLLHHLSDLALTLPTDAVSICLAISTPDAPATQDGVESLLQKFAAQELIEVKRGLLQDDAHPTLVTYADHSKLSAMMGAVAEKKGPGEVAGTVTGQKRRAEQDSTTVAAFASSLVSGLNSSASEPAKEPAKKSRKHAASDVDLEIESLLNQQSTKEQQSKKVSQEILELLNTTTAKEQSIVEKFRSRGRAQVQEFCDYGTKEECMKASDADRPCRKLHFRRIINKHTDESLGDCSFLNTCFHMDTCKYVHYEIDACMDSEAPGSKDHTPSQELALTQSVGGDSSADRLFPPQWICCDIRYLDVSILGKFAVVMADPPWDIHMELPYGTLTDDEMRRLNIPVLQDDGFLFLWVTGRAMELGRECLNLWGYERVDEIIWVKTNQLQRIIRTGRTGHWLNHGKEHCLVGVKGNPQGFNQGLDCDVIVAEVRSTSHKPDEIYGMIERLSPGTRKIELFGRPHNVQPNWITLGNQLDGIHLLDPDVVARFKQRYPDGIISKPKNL
T1 sequence (Q9HCE5 whole entry partner): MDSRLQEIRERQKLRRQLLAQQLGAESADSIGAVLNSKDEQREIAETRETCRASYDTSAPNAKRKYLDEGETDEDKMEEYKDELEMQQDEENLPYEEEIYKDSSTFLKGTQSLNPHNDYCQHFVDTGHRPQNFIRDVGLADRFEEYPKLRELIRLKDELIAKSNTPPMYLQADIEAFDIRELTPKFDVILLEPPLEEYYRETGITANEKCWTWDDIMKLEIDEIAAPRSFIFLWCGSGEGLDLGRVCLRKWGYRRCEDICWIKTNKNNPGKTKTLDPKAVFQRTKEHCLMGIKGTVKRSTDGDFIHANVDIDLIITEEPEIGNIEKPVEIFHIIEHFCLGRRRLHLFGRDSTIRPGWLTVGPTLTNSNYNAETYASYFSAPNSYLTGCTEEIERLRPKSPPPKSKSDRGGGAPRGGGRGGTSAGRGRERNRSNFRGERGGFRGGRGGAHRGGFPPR

IC50 [1] [nM] | SMILES | IC50 (Caov-3 cells) [nM] | IC50 (Kasumi-1 cells) [nM]
≤ 50 | c1cc(N2CCC[C@@H](NCC3CC3)C2)ncc1C1(n2cc(-c3cncc(N4CCCC4)n3)nn2)COC1 [Compound 207, (R)-N-(cyclopropylmethyl)-1-(5-(3-(4-(6-(pyrrolidin-1-yl)pyrazin-2-yl)-1H-1,2,3-triazol-1-yl)oxetan-3-yl)pyridin-2-yl)piperidin-3-amine] | ≤ 500 | ≤ 500
≤ 50 | COc1cc(-c2cn(Cc3ccc(N4CCC[C@@H](NC5CCC5)C4)nn3)nn2)c2cn[nH]c2c1 [Compound 030, (R)-N-cyclobutyl-1-(6-((4-(6-methoxy-1H-indazol-4-yl)-1H-1,2,3-triazol-1-yl)methyl)pyridazin-3-yl)piperidin-3-amine] | 500 to 5000 | 500 to 5000
≤ 50 | COc1cc(-c2cn(Cc3cnc(N4CCCC(NCC5CCC5)C4)s3)nn2)c2cn[nH]c2c1 (stereo not drawn) [Compound 026, N-(cyclobutylmethyl)-1-(5-((4-(6-methoxy-1H-indazol-4-yl)-1H-1,2,3-triazol-1-yl)methyl)thiazol-2-yl)piperidin-3-amine] | > 5000 | 500 to 5000
≤ 50 | COc1cc(-c2cn(C(C)n3ccc(N4CCC[C@@H](NCC5CCC5)C4)cc3=O)nn2)c2cn[nH]c2c1 (mixture of isomers) [Compound 050, 4-((R)-3-((cyclobutylmethyl)amino)piperidin-1-yl)-1-(1-(4-(6-methoxy-1H-indazol-4-yl)-1H-1,2,3-triazol-1-yl)ethyl)pyridin-2(1H)-one] | ≤ 500 | ≤ 500
≤ 50 | COC1CN(c2cncc(-c3cn(C(C)n4ccc(N5CCC[C@@H](NCC6CC6)C5)cc4=O)nn3)n2)C1 (single isomer, unassigned) [Compound 246] | ≤ 500 | ≤ 500
≤ 50 | CC(n1cc(-c2cncc(-n3ccnc3)c2)nn1)n1ccc(N2CCC[C@@H](NCC3CC3)C2)cc1=O (single isomer, unassigned) [Compound 218] | 500 to 5000 | > 5000
≤ 50 | O=C(Nc1cc(=O)n2ccccc2n1)C1(c2ccc(N3CCC[C@@H](NCC4CCCC4)C3)cn2)COC1 [Compound 325, (R)-3-(5-(3-((cyclopentylmethyl)amino)piperidin-1-yl)pyridin-2-yl)-N-(4-oxo-4H-pyrido[1,2-a]pyrimidin-2-yl)oxetane-3-carboxamide] | ≤ 500 | 500 to 5000
50 to 500 | O=C(NCc1ccc(N2CCCC(NCC34CC(F)(C3)C4)C2)nn1)c1cc(=O)n2ccccc2n1 (stereo not drawn) [Compound 011, N-((6-(3-(((3-fluorobicyclo[1.1.1]pentan-1-yl)methyl)amino)piperidin-1-yl)pyridazin-3-yl)methyl)-4-oxo-4H-pyrido[1,2-a]pyrimidine-2-carboxamide] | > 5000 | > 5000
≤ 50 | CC(c1ccc(N2CCC[C@@H](NCC3CC3)C2)cn1)n1cc(-c2cncc(N(C)C)n2)nn1 (single isomer, unassigned) [Compound 260] | ≤ 500 | ≤ 500
≤ 50 | CC(n1cnc(-c2cc(N(C)C)cnn2)c1)n1ccc(N2CCC[C@@H](NCC3CC3)C2)cc1=O (single isomer, unassigned) [Compound 243] | 500 to 5000 | 500 to 5000
≤ 50 | c1ncc(N2CCCC2)cc1-c1cn(C2(c3ccc(N4CCC[C@@H](NCC5CC5)C4)nc3)COC2)nn1 [Compound 223, (R)-N-(cyclopropylmethyl)-1-(5-(3-(4-(5-(pyrrolidin-1-yl)pyridin-3-yl)-1H-1,2,3-triazol-1-yl)oxetan-3-yl)pyridin-2-yl)piperidin-3-amine] | ≤ 500 | ≤ 500
≤ 50 | CC(n1cc(-c2cncc(N(C)C)c2)nn1)n1ccc(N2CCC[C@@H](NCC3CC3)C2)cc1=O (single isomer, unassigned) [Compound 142] | ≤ 500 | ≤ 500
≤ 50 | CC(c1cnn(-c2cc(N3CCCC3)cnn2)c1)n1ccc(N2CCC[C@@H](NCC3CC3)C2)cc1=O (single isomer, unassigned) [Compound 219] | ≤ 500 | 500 to 5000
≤ 50 | c1cc(-c2cn(Cc3ccc(N4CCC[C@@H](NCC5CCC5)C4)nn3)nn2)c2cncn2c1 [Compound 003, (R)-N-(cyclobutylmethyl)-1-(6-((4-(imidazo[1,5-a]pyridin-8-yl)-1H-1,2,3-triazol-1-yl)methyl)pyridazin-3-yl)piperidin-3-amine] | > 5000 | 500 to 5000
≤ 50 | CC(c1ccc(N2CCC[C@@H](NCC3CC3)C2)nn1)c1nnc(-c2cncc(N3CCCC3)n2)o1 (single isomer, unassigned) [Compound 347] | 500 to 5000 | 500 to 5000
≤ 50 | O=C(Nc1cncc(N2CCCC2)n1)C1(c2ccc(N3CCC[C@@H](NCC4CC4)C3)nc2)COC1 [Compound 324, (R)-3-(6-(3-((cyclopropylmethyl)amino)piperidin-1-yl)pyridin-3-yl)-N-(6-(pyrrolidin-1-yl)pyrazin-2-yl)oxetane-3-carboxamide] | ≤ 500 | ≤ 500
≤ 50 | O=C(Nc1cncc(C2CCCC2)n1)C1(c2ccc(N3CCC[C@@H](NCC4CCC4)C3)cn2)COC1 [Compound 268, (R)-3-(5-(3-((cyclobutylmethyl)amino)piperidin-1-yl)pyridin-2-yl)-N-(6-cyclopentylpyrazin-2-yl)oxetane-3-carboxamide] | 500 to 5000 | 500 to 5000
≤ 50 | CC(n1cc(-c2cncc(N3CC[C@H](C)C3)n2)nn1)n1ccc(N2CCC[C@@H](NCC3CC3)C2)cc1=O (single isomer, unassigned) [Compound 240] | ≤ 500 | ≤ 500
≤ 50 | O=C(Nc1cc(=O)n2ccccc2n1)C1(c2ccc(N3CCC[C@@H](NCC4(C(F)(F)F)CC4)C3)cn2)COC1 [Compound 328, (R)-N-(4-oxo-4H-pyrido[1,2-a]pyrimidin-2-yl)-3-(5-(3-(((1-(trifluoromethyl)cyclopropyl)methyl)amino)piperidin-1-yl)pyridin-2-yl)oxetane-3-carboxamide] | ≤ 500 | 500 to 5000
≤ 50 | COc1cc(-c2nnn(C(C)n3ccc(N4CCC[C@@H](NCC5CCC5)C4)cc3=O)n2)c2cn[nH]c2c1 (single isomer, unassigned) [Compound 210] | ≤ 500 | 500 to 5000
≤ 50 | CC(c1nnc(-c2cncc(N(C)C)n2)s1)n1ccc(N2CCC[C@@H](NCC3CC3)C2)cc1=O (stereo partly drawn) [Compound 231, 4-((R)-3-((cyclopropylmethyl)amino)piperidin-1-yl)-1-(1-(5-(6-(dimethylamino)pyrazin-2-yl)-1,3,4-thiadiazol-2-yl)ethyl)pyridin-2(1H)-one] | ≤ 500 | ≤ 500
≤ 50 | CCN(C)c1cncc(-c2cn(C(C)n3ccc(N4CCC[C@@H](NCC5CC5)C4)cc3=O)nn2)c1 (stereo partly drawn) [Compound 203] | ≤ 500 | ≤ 500
≤ 50 | c1ncc(C2CC2)cc1-c1cn(C2(c3ccc(N4CCC[C@@H](NCC5CCC5)C4)cn3)COC2)nn1 [Compound 306, (R)-N-(cyclobutylmethyl)-1-(6-(3-(4-(5-cyclopropylpyridin-3-yl)-1H-1,2,3-triazol-1-yl)oxetan-3-yl)pyridin-3-yl)piperidin-3-amine] | ≤ 500 | ≤ 500
